{
  "source": "patent US12630497B2",
  "about": "“Compound having malate dehydrogenase inhibitory activity and pharmaceutical composition for preventing or treating cancer comprising same as active ingredient” (DONGGUK UNIVERSITY INDUSTRY-ACADEMIC COOPERATION FOUNDATION, priority 2017, dated 2026)",
  "key": {"HCT-116 cells [1]": {"system": "HCT-116 cells", "assay": "Mitochondrial oxygen consumption rate (XF24 extracellular flux analyzer)", "format": "cell-based", "description": "More specifically, a mitochondrial oxygen consumption rate (OCR) was measured using a XF24 extracellular flux analyzer (Seahorse Bioscience). HCT-116 cells (1×10^5 cells) were cultured in a culture plate (XF24 cell culture plate) for 24 hours, the culture medium was exchanged with a XF assay medium, and then the cells were incubated in a carbon dioxide-free cell incubator for 1 hour. After the mitochondrial oxygen consumption rate was measured three times in drug-free cells, oxygen consumption rates were measured three times after the administration of oligomycin (1 μM), which is an ATP synthesis inhibitor, three times after the administration of carbonyl cyanide p-trifluoromethoxyphenylhydrazone (0.5 μM), which is a chemical uncoupler, and three times after the administration of rotenone (1 μM) and antimycin A (1 μM), which are electron transport chain inhibitors."}, "HCT-116 cells [2]": {"system": "HCT-116 cells", "assay": "Intracellular oxygen concentration, hypoxia-sensitive fluorescent probe MAR", "format": "cell-based", "conditions": "hypoxia 6 hours, MAR probe 0.5 μM", "description": "Afterward, an intracellular change in fluorescence intensity by hypoxia was measured and quantified using the IncuCyte® live-cell analysis system (Essen BioScience)."}, "[3]": {"system": "HCT-116 colorectal cancer cell line", "assay": "Antitumor effect in cancer cell-transplanted mouse model", "format": "in vivo", "description": "More specifically, a plate-cultured HCT-116 colorectal cancer cell line was obtained by trypsin treatment, washed with a serum-free medium, and diluted to a concentration of 2.5×10^7 cells/mL. Afterward, the diluted cells (5×10^6 cells/200 μl) were administered to a side of each of seven 6-week-old female nude mice (SLC-Central Lab Animal Inc., Korea), which are specific pathogen-free (SPF) Balb/c mice, through subcutaneous injection."}, "786-O": {"system": "786-O", "assay": "Cell proliferation inhibition (methylene blue)", "format": "cell-based", "conditions": "Homo sapiens, 786-0; 786-O kidney and renal cancer cell line, 72 hours; read-out: Viability GI50", "from_the_text": "(§1) Cell lines used in the experiment are lung cancer cell lines A549 and H1703, colorectal cancer cell lines HCT116 and HT29, liver cancer cell lines Hep3B and HepG2, gastric or stomach cancer cell lines NUGC-3 and AGS, kidney and renal cancer cell lines 786-O and Caki-1, breast cancer cell lines MCF-7 and MDA-MB-231, a prostate cancer cell line PC3, a pancreatic cancer cell line MIA-PaCa-2, a cervical cancer cell line HeLa, and normal cell lines WI-38 and CCD-32Lu. Specifically, each of the cell lines was suspended in DMEM containing 5% FBS, transferred to a 96-well plate (3×10^3 cells/well), and cultured in a 37 □ cell incubator maintaining 5% carbon dioxide for 24 hours. […] Afterward, a change in the concentration of methylene blue extracted with a 0.5% aqueous hydrochloric acid solution was analyzed by measuring absorbance at 600 nm."}, "A549": {"system": "A549", "assay": "Cell proliferation inhibition (methylene blue)", "format": "cell-based", "from_the_text": "as §1"}, "AGS": {"system": "AGS", "assay": "Cell proliferation inhibition (methylene blue)", "format": "cell-based", "conditions": "Homo sapiens; AGS gastric or stomach cancer cell line, 72 hours; read-out: Viability GI50", "from_the_text": "as §1"}, "CCD-32Lu": {"system": "CCD-32Lu", "assay": "Cell proliferation inhibition (methylene blue)", "format": "cell-based", "from_the_text": "as §1"}, "Caki-1": {"system": "Caki-1", "assay": "Cell proliferation inhibition (methylene blue)", "format": "cell-based", "conditions": "Homo sapiens; Caki-1 kidney and renal cancer cell line, 72 hours; read-out: Viability GI50", "from_the_text": "as §1"}, "H1703": {"system": "H1703", "assay": "Cell proliferation inhibition (methylene blue)", "format": "cell-based", "conditions": "Homo sapiens, NCI-H1703; H1703 lung cancer cell line, 72 hours; read-out: Viability GI50", "from_the_text": "as §1"}, "HCT116": {"system": "HCT116", "assay": "Cell proliferation inhibition (methylene blue)", "format": "cell-based", "from_the_text": "as §1"}, "HT29": {"system": "HT29", "assay": "Cell proliferation inhibition (methylene blue)", "format": "cell-based", "conditions": "Homo sapiens, HT-29; HT29 colorectal cancer cell line, 72 hours; read-out: Viability GI50", "from_the_text": "as §1"}, "HeLa": {"system": "HeLa", "assay": "Cell proliferation inhibition (methylene blue)", "format": "cell-based", "conditions": "Homo sapiens; HeLa cervical cancer cell line, 72 hours; read-out: Viability GI50", "from_the_text": "as §1"}, "Hep3B": {"system": "Hep3B", "assay": "Cell proliferation inhibition (methylene blue)", "format": "cell-based", "conditions": "Homo sapiens; Hep3B liver cancer cell line, 72 hours; read-out: Viability GI50", "from_the_text": "as §1"}, "HepG2": {"system": "HepG2", "assay": "Cell proliferation inhibition (methylene blue)", "format": "cell-based", "from_the_text": "as §1"}, "MCF-7": {"system": "MCF-7", "assay": "Cell proliferation inhibition (methylene blue)", "format": "cell-based", "conditions": "Homo sapiens, MCF7; MCF-7 breast cancer cell line, 72 hours; read-out: Viability GI50", "from_the_text": "as §1"}, "MDA-MB-231": {"system": "MDA-MB-231", "assay": "Cell proliferation inhibition (methylene blue)", "format": "cell-based", "conditions": "Homo sapiens; MDA-MB-231 breast cancer cell line, 72 hours; read-out: Viability GI50", "from_the_text": "as §1"}, "MIA PaCa-2": {"system": "MIA PaCa-2", "assay": "Cell proliferation inhibition (methylene blue)", "format": "cell-based", "conditions": "Homo sapiens; MIA PaCa-2 pancreatic cancer cell line, 72 hours; read-out: Viability GI50", "from_the_text": "as §1"}, "NUGC-3": {"system": "NUGC-3", "assay": "Cell proliferation inhibition (methylene blue)", "format": "cell-based", "conditions": "Homo sapiens; NUGC-3 gastric or stomach cancer cell line, 72 hours; read-out: Viability GI50", "from_the_text": "as §1"}, "PC3": {"system": "PC3", "assay": "Cell proliferation inhibition (methylene blue)", "format": "cell-based", "conditions": "Homo sapiens, PC-3; PC3 prostate cancer cell line, 72 hours; read-out: Viability GI50", "from_the_text": "as §1"}, "WI-38": {"system": "WI-38", "assay": "Cell proliferation inhibition (methylene blue)", "format": "cell-based", "from_the_text": "as §1"}},
  "data": [
    {"compound": "COC(=O)c1cccc(NC(=O)CCOc2ccc(C(C)(C)CC(C)(C)C)cc2)c1", "note": "[Compound 9-2, Methyl 3-(3-(4-(2,4,4-trimethylpentan-2-yl)phenoxy)propanamido)benzoate]", "values": [
      {"measurement": "basal respiration rate", "setting": "HCT-116 cells [1]", "value": "decrease in a concentration-dependent manner"},
      {"measurement": "maximum respiration rate", "setting": "HCT-116 cells [1]", "value": "decrease in a concentration-dependent manner"},
      {"measurement": "mitochondrial oxygen consumption rate", "setting": "HCT-116 cells [1]", "value": "inhibited a mitochondrial oxygen consumption rate"},
      {"measurement": "intracellular oxygen concentration", "setting": "HCT-116 cells [2]", "value": "increased"},
      {"measurement": "tumor formation (size or volume) reduced", "setting": "[3]; 20 mg/kg orally once a day, nude mice, versus vehicle", "value": 76.4, "unit": "%"},
      {"measurement": "tumor weight", "setting": "[3]; after 24 days of administration, 20 mg/kg orally once a day", "value": "163.0 ± 117.5", "unit": "mg"},
      {"measurement": "tumor weight reduced", "setting": "[3]; after 24 days, compared to non-treated mice", "value": 67.0, "unit": "%"},
      {"measurement": "Tumor size (mm^3)", "setting": "[3]; day 0, 20 mg/kg orally once a day", "value": "94.1 ± 11.0", "unit": "mm^3"},
      {"measurement": "Tumor size (mm^3)", "setting": "[3]; day 3, 20 mg/kg orally once a day", "value": "97.3 ± 9.8", "unit": "mm^3"},
      {"measurement": "Tumor size (mm^3)", "setting": "[3]; day 5, 20 mg/kg orally once a day", "value": "101.6 ± 15.7", "unit": "mm^3"},
      {"measurement": "Tumor size (mm^3)", "setting": "[3]; day 7, 20 mg/kg orally once a day", "value": "119.9 ± 29.3", "unit": "mm^3"},
      {"measurement": "Tumor size (mm^3)", "setting": "[3]; day 10, 20 mg/kg orally once a day", "value": "111.0 ± 19.0", "unit": "mm^3"},
      {"measurement": "Tumor size (mm^3)", "setting": "[3]; day 12, 20 mg/kg orally once a day", "value": "124.2 ± 35.5", "unit": "mm^3"},
      {"measurement": "Tumor size (mm^3)", "setting": "[3]; day 14, 20 mg/kg orally once a day", "value": "159.9 ± 44.6", "unit": "mm^3"},
      {"measurement": "Tumor size (mm^3)", "setting": "[3]; day 17, 20 mg/kg orally once a day", "value": "187.9 ± 78.5", "unit": "mm^3"},
      {"measurement": "Tumor size (mm^3)", "setting": "[3]; day 19, 20 mg/kg orally once a day", "value": "241.4 ± 162.8", "unit": "mm^3"},
      {"measurement": "Tumor size (mm^3)", "setting": "[3]; day 21, 20 mg/kg orally once a day", "value": "258.3 ± 195.7", "unit": "mm^3"},
      {"measurement": "Tumor size (mm^3)", "setting": "[3]; day 24, 20 mg/kg orally once a day", "value": "277.5 ± 216.0", "unit": "mm^3"},
      {"measurement": "GI50", "setting": "786-O", "value": "10 to 20", "unit": "µM"},
      {"measurement": "inhibitory effect on proliferation", "setting": "A549; A549 cells", "value": "strong inhibitory effect"},
      {"measurement": "GI50", "setting": "A549; Homo sapiens, A549 lung cancer cell line, 72 hours, read-out: Viability GI50", "value": "1 to 5", "unit": "µM"},
      {"measurement": "GI50", "setting": "AGS", "value": "10 to 20", "unit": "µM"},
      {"measurement": "GI50", "setting": "CCD-32Lu; CCD-32Lu normal cell line, 72 hours, read-out: Viability GI50", "value": "> 20", "unit": "µM"},
      {"measurement": "effect on proliferation of normal cell lines", "setting": "CCD-32Lu; CCD-32Lu, within concentration range in which proliferation of cancer cells is inhibited", "value": "no effect on the proliferation of normal cell lines"},
      {"measurement": "GI50", "setting": "Caki-1", "value": "10 to 20", "unit": "µM"},
      {"measurement": "GI50", "setting": "H1703", "value": "5 to 10", "unit": "µM"},
      {"measurement": "inhibitory effect on proliferation", "setting": "HCT116; HCT116 cells", "value": "strong inhibitory effect"},
      {"measurement": "GI50", "setting": "HCT116; Homo sapiens, HCT-116, HCT116 colorectal cancer cell line, 72 hours, read-out: Viability GI50", "value": "1 to 5", "unit": "µM"},
      {"measurement": "GI50", "setting": "HT29", "value": "5 to 10", "unit": "µM"},
      {"measurement": "GI50", "setting": "HeLa", "value": "10 to 20", "unit": "µM"},
      {"measurement": "GI50", "setting": "Hep3B", "value": "10 to 20", "unit": "µM"},
      {"measurement": "inhibitory effect on proliferation", "setting": "HepG2; HepG2 cells", "value": "strong inhibitory effect"},
      {"measurement": "GI50", "setting": "HepG2; Homo sapiens, HepG2 liver cancer cell line, 72 hours, read-out: Viability GI50", "value": "1 to 5", "unit": "µM"},
      {"measurement": "GI50", "setting": "MCF-7", "value": "10 to 20", "unit": "µM"},
      {"measurement": "GI50", "setting": "MDA-MB-231", "value": "10 to 20", "unit": "µM"},
      {"measurement": "GI50", "setting": "MIA PaCa-2", "value": "5 to 10", "unit": "µM"},
      {"measurement": "GI50", "setting": "NUGC-3", "value": "5 to 10", "unit": "µM"},
      {"measurement": "GI50", "setting": "PC3", "value": "10 to 20", "unit": "µM"},
      {"measurement": "GI50", "setting": "WI-38; Homo sapiens, WI-38 normal cell line, 72 hours, read-out: Viability GI50", "value": "> 20", "unit": "µM"},
      {"measurement": "effect on proliferation of normal cell lines", "setting": "WI-38; WI-38, within concentration range in which proliferation of cancer cells is inhibited", "value": "no effect on the proliferation of normal cell lines"}
    ]}
  ]
}
